The text below walks through data of ChEMBL document CHEMBL1201862, “PubChem BioAssay data set” (2004).

Holding throughout (test): NCI tumour cell line growth inhibition, 48 h
Assay [1] relates to UACC-257.
Assay [2] relates to HOP-62.
Assay [3] deals with HCT-116.
The subject of assay [4] is SF-268.
Assay [5] concerns SK-MEL-2.
For assay [6], the system named is NCI-H226.
In assay [7] the test system is DMS-114.
For assay [8], the system named is HL-60.
Assay [9] has as its system OVCAR-8.
Assay [10] has as its system SF-539.
In assay [11] the test system is OVCAR-3.
Assay [12] deals with NCI-H23.
Assay [13] relates to SK-MEL-28.
The test system of assay [14] is CCRF-CEM.
Assay [15] has as its system OVCAR-4.
For assay [16], the system named is KM12.
The subject of assay [17] is SK-OV-3.
The subject of assay [18] is SN12C.
Assay [19] has as its system U-251.
In assay [20] the test system is LOX IMVI.

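How tested: cells in 96-well plates exposed to compound for 48 hours at five concentrations. Here, GI50 denotes the concentration required for 50% inhibition of growth.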 Active and inactive are the calls of the source. Cut-off read from the data, not from the text of the source: active = GI50 up to about 1.1 µM and inactive = higher.

For the compound `COC(=O)C1=C(C)N2CCCOC2(C)C(C(=O)OC)C1c1cccc(Cl)c1` (stereo unspecified), the GI50 in [1] was 19.7 µM (inactive); in assay [2], 20.7 µM (inactive); in assay [3] it was 25 µM (inactive); in assay [4], 32.8 µM (inactive); in [5] it was 18.1 µM (inactive); in [6], 17.8 µM (inactive). For the same compound, the GI50 in assay [7] was 19.1 µM (inactive); in assay [8] it was 16.4 µM (inactive); in [9], 24.9 µM (inactive); in assay [10], 27.8 µM (inactive); in [11], 22.2 µM (inactive); in assay [12], 31.8 µM (inactive). The GI50 in assay [13] is 21.7 µM (inactive); in assay [14], 27.7 µM (inactive); in assay [15] it was 56.5 µM (inactive); in [16], 17.9 µM (inactive).

As to `O=S(O)c1cc(Cl)c(O)c(Cl)c1`, the GI50 in assay [1], in assay [2], in assay [17], in assay [3], in [4] and in [5] was > 100 µM (inactive) each time. Also, the GI50 in assay [7], in assay [8], in assay [10], in [11], in assay [18] and in assay [12] was > 100 µM (inactive) each time. Also, the GI50 in assay [13], in [14], in [19], in [15], in assay [20] and in assay [16] was > 100 µM (inactive) throughout.

Take `COc1ccc(/C(C=O)=C(\Cl)c2ccc(OC)c(OC)c2)cc1`: the GI50 in assay [1] was > 100 µM (inactive); in assay [2], 36.8 µM (inactive); in assay [17], 67.1 µM (inactive); in [3] it was > 100 µM (inactive); in assay [4], 46.1 µM (inactive); in assay [5] it was > 100 µM (inactive). For the same compound, the GI50 in [6] was > 100 µM (inactive); in [7], 81.3 µM (inactive); in assay [8], 24 µM (inactive); in [9] it was 75.5 µM (inactive); in assay [10] it was 57.3 µM (inactive); in assay [11] it was > 100 µM (inactive). Moreover, the GI50 is > 100 µM (inactive) in assay [18]; > 100 µM (inactive) in [12]; 52.4 µM (inactive) in assay [14]; 32.1 µM (inactive) in assay [19]; > 100 µM (inactive) in assay [15]; > 100 µM (inactive) in assay [20].

`CCCCC#CS(=O)(=O)C(F)(F)F`: the GI50 in assay [1] is 12.9 µM (inactive); in assay [2], > 61.5 µM (inactive); in [17], > 94.2 µM (inactive); in assay [3], 36 µM (inactive); in assay [4] it was > 72.4 µM (inactive); in [5] it was > 36.8 µM (inactive). The GI50 was > 100 µM (inactive) in assay [6]; 37.2 µM (inactive) in assay [7]; 23.2 µM (inactive) in assay [8]; 97.1 µM (inactive) in [9]; > 100 µM (inactive) in assay [10]; > 56.4 µM (inactive) in [11]. In addition, the GI50 in assay [18] is > 100 µM (inactive); in assay [12], 58.6 µM (inactive); in assay [13], > 60 µM (inactive); in assay [14] it was 48.6 µM (inactive); in assay [19], 76.6 µM (inactive); in assay [15], 27.9 µM (inactive). Further, the GI50 is 60.7 µM (inactive) in [20] and > 83.9 µM (inactive) in assay [16].

With `COC1/C=C\C=C(/C)C(=O)NC2=CC(=O)C=C(C2=O)C(OC)C(C)CC(OC)C(OC)C(C)/C=C(/C)C1OC(N)=O` (stereo unspecified), the GI50 in [1] was 1.37 µM (inactive); in assay [2], 2.92 µM (inactive); in [17] it was 14.6 µM (inactive); in assay [3], 1.34 µM (inactive); in assay [4], 11.5 µM (inactive); in assay [5], 2.31 µM (inactive). Also, the GI50 is 21.8 µM (inactive) in assay [6]; 1.12 µM (inactive) in assay [7]; 0.132 µM (active) in assay [8]; 1.65 µM (inactive) in [9]; 8.09 µM (inactive) in assay [10]; 1.49 µM (inactive) in [11]. The GI50 was 5.25 µM (inactive) in [18]; 1.7 µM (inactive) in [12]; 2.59 µM (inactive) in assay [13]; 0.278 µM (active) in [14]; 12.7 µM (inactive) in [19]; 8.26 µM (inactive) in [15]. In addition, the GI50 is 3.19 µM (inactive) in assay [20] and 5.7 µM (inactive) in [16].

As for `COc1ccc2[nH]cc(/C=C(/C)c3ccncc3)c2c1`, the GI50 in assay [1] is 7.48 µM (inactive); in assay [2], 7.64 µM (inactive); in [17], 4.41 µM (inactive); in [3] it was 4.15 µM (inactive); in assay [4], 11.1 µM (inactive); in [5], 5.38 µM (inactive). For the same compound, the GI50 in assay [6] is 22.6 µM (inactive); in assay [7], 2.62 µM (inactive); in assay [8], 1.44 µM (inactive); in assay [9] it was 16 µM (inactive); in assay [10], 8.36 µM (inactive); in assay [11], 5.7 µM (inactive). Moreover, the GI50 in assay [18] was 8.59 µM (inactive); in assay [12], 2.59 µM (inactive); in assay [13], 4.94 µM (inactive); in [14], 3.13 µM (inactive); in [19] it was 5.3 µM (inactive); in assay [15], 65 µM (inactive). The GI50 is 6.28 µM (inactive) in [20] and 2.44 µM (inactive) in assay [16].

Turning to `O=C1/C(=C/c2ccc(Cl)cc2)N=C(c2ccccc2)N1/N=C/c1ccccc1O`, the GI50 in assay [1] is > 100 µM (inactive); in assay [2], 1.87 µM (inactive); in assay [17], 5.61 µM (inactive); in [3] it was 2.44 µM (inactive); in assay [4], 14.8 µM (inactive); in assay [5], 17.1 µM (inactive). In addition, the GI50 in assay [6] was 19.2 µM (inactive); in assay [8] it was 28.1 µM (inactive); in assay [9], 5.51 µM (inactive); in [10] it was 10.9 µM (inactive); in [11], 9.1 µM (inactive); in assay [18], 23.4 µM (inactive). Further, the GI50 in [12] was > 100 µM (inactive); in [13], 15.1 µM (inactive); in assay [14], 2.11 µM (inactive); in assay [19], 5.27 µM (inactive); in assay [15], 4.57 µM (inactive); in assay [20] it was 13.2 µM (inactive). For the same compound, the GI50 in assay [16] is 12.9 µM (inactive).
